pEC50: −log10 of the molar value. Some results are limits rather than exact numbers.

This assay deals with T1, human apelin receptor (APJ, AGTRL-one, APLNR) (Homo sapiens, UniProt P35414).
T1 construct: host or cells: Chinese hamster ovary cells, stably integrated receptor
T1 sequence (P35414 1-380): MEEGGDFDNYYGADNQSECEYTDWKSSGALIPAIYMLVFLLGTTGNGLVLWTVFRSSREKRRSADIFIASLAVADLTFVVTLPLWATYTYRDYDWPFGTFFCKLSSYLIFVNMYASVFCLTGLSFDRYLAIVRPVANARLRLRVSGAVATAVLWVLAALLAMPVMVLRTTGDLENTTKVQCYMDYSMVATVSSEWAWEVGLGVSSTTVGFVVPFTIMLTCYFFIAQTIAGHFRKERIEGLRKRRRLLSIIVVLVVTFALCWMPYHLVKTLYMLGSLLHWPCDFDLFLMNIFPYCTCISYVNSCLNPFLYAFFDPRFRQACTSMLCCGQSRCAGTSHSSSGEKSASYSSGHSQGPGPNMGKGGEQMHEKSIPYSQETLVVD
Put plainly: cell-based cAMP TR-FRET assay of apelin receptor activation. Particulars: CHO cells expressing human APJ, forskolin-stimulated cAMP, 0.5 h incubation, 50% of control (apelin-13, 1 nM) response; read-out: Potency Category (EC50). Here is the method:
The assays disclosed herein were performed using cell lines from DiscoveX, Inc. Biological activity was determined to the cell—based assay. This assay detects activation of the receptor by reporting on intracellular cyclic adenosine monophosphate (cAMP) level. Chinese hamster ovary cells engineered to express the stably integrated human apelin receptor (APJ, AGTRL—one, APLNR), pleaded into the wells of the microtiter plate. Cells were stimulated with […] to increase intracellular cyclic AMP. Immediately following, compounds were added to the range of final concentrations 0.0-100 μM, in DMSO (not to exceed a final DMSO concentration greater than 1% ν/ν), and allowed to incubate with the cells for 0.5 h. At the end of the incubation, cells were lysed to stop APJ signaling and cAMP was quantified using a commercially available competitive immunoassay kit that applies homogenous time—resolved florescence energy transfer (TR—FRET). The assay is based on the competition between a europium (Eu) chelate—labeled cAMP donor tracer and cellular cAMP for binding sites on a cAMP—specific monoclonal antibody labeled with an acceptor fluorophore. When antibodies are bound to the cAMP tracer light emissions at 320 nm stimulate the energy transfer from the donor to the acceptor, which in turn emits light at 665 nm. In the presence of competitive unlabeled cAMP (derived from the activity of the receptor or forskolin-stimulated production of cAMP), the labelled cAMP tracer is dissociated from the cAMP antibody, resulting in a loss of FRET signal. The amount of light emitted by the FRET is inversely proportional to the cAMP generated by the cell/receptor system. Potency and efficacy at APJ are reported in reference to the canonical APJ receptor agonist apelin—13 when tested at 1 nM. […] Compound efficacy (% response) is reported as a percentage of the maximal apein-13 response at 1 nM (control). Potencies were calculated by fitting a […] logistic curve to concentration response consisting of at least 10 discrete data points spanning effective range of the compounds in the cell-based assay that measures cAMP. […] Category B is 200-500 nM; Category C is 100-200 nM; Category D is 50-100 nM; and Category E is <50 nM.
In general, pEC50 refers to −log10 of the EC50, conventionally taken in molar units. `COc1cc2nc(NC(=O)C(Oc3ccc(C#N)cc3)c3ccc(S(=O)(=O)NCCN(C)C)cc3)sc2cc1OC` (centres unmarked): the negative-log EC50 (pEC50) is more than 7.30. Regarding `CCOc1ccc(C(Oc2ccc(C#N)cc2)C(=O)Nc2nc3cc(OC)c(OC)cc3s2)cc1` (centres unmarked), the pEC50 is more than 7.30.

On to `CCS(=O)(=O)c1ccc(C(OCCCOC)C(=O)Nc2nc3cc(OC)c(OC)cc3s2)cc1` (centres unmarked), for which the pEC50 is less than 6.30.

`CCS(=O)(=O)c1ccc(CC(=O)Nc2nc3c(OC)ccc(OC)c3s2)cc1`: the pEC50 is less than 6.30. Regarding `CCS(=O)(=O)c1ccc(C(Oc2ccc(N(C)C)cc2)C(=O)Nc2nc3cc(OC)c(OC)cc3s2)cc1` (centres unmarked), the pEC50 is 6.30 to 6.70. For the compound `COc1cc2nc(NC(=O)C(Oc3ccc(C(=O)NCCN(C)C)cc3)c3ccc(C#N)cc3)sc2cc1OC` (centres unmarked), the pEC50 is 7.00 to 7.30. In the case of `COc1cc2nc(NC(=O)C(Oc3ccc(C#N)cc3)c3ccc(S(=O)(=O)CC4CC4)cc3)sc2cc1OC` (centres unmarked), the pEC50 was more than 7.30. Turning to `COc1cc2nc(NC(=O)Cc3cccc(S(=O)(=O)C(C)C)c3)sc2cc1OC`, the pEC50 was less than 6.30. In the case of `COc1cc2nc(NC(=O)C(Oc3ccc(C#N)cc3)c3cccc(S(=O)(=O)C(C)C)c3)sc2cc1OC` (centres unmarked) it was 6.30 to 6.70; in that of `CCS(=O)(=O)c1ccc(C(NCC(C)C)C(=O)Nc2nc3cc(OC)c(OC)cc3s2)cc1` (centres unmarked), less than 6.30; in that of `COc1cc2nc(NC(=O)C(Oc3ccc(C#N)cc3)c3ccc(Cl)cc3)sc2cc1OC` (centres unmarked), 6.70 to 7.00.

Regarding `CCS(=O)(=O)c1ccc(C(Oc2ccc(C#N)cc2)C(=O)Nc2nc3cc(C)c(OC)cc3s2)cc1` (centres unmarked), the pEC50 is less than 6.30.

As for `CCS(=O)(=O)c1ccc(C(C)C(=O)Nc2nc3cc(OC)c(OC)cc3s2)cc1` (centres unmarked), the pEC50 is less than 6.30. `CCS(=O)(=O)c1ccc(C(Oc2ccccc2Cl)C(=O)Nc2nc3cc(OC)c(OC)cc3s2)cc1` (centres unmarked): the pEC50 is less than 6.30. For `COCCNC(=O)c1ccc(C(Oc2ccc(C#N)cc2)C(=O)Nc2nc3cc(OC)c(OC)cc3o2)cc1` (centres unmarked), the pEC50 is 7.00 to 7.30. For `CCS(=O)(=O)c1ccc(C(Oc2ccc(C#N)cc2)C(=O)Nc2nc3cc4c(cc3s2)OCCO4)cc1` (centres unmarked), the pEC50 is less than 6.30. Take `CCS(=O)(=O)c1ccc(C(CC2CC2)C(=O)Nc2nc3cc(OC)c(OC)cc3s2)cc1` (centres unmarked): the pEC50 was less than 6.30.

Turning to `CCS(=O)(=O)c1ccc(C(Oc2ccc(C(=O)O)cc2)C(=O)Nc2nc3cc(OC)c(OC)cc3s2)cc1` (centres unmarked), the negative-log EC50 (pEC50) was less than 6.30. Take `COc1cc2nc(NC(=O)C(Oc3ccc(C#N)cc3)c3ccc(S(=O)(=O)Cc4ccccc4)cc3)sc2cc1OC` (centres unmarked): the pEC50 is 6.30 to 6.70. In the case of `CCS(=O)(=O)c1ccc(C(Oc2ccc(C#N)cc2)C(=O)Nc2nc3cc(OCCF)c(OC)cc3s2)cc1` (centres unmarked) it was more than 7.30; in that of `COc1cc2nc(NC(=O)C(Oc3ccc(OCCO)cc3)c3ccc(C#N)cc3)sc2cc1OC` (centres unmarked), more than 7.30; in that of `CCS(=O)(=O)c1ccc(C(C(=O)Nc2nc3cc(OC)c(OC)cc3s2)N2CCCCC2)cc1` (centres unmarked), less than 6.30.

On to `CCS(=O)(=O)c1ccc(C(Oc2ccc(C#N)cc2)C(=O)Nc2nc3ccc(OC)cc3s2)cc1` (centres unmarked), for which the pEC50 was less than 6.30. In the case of `COc1cc2nc(NC(=O)C(Oc3ccc(C#N)cc3)c3cccc(S(=O)(=O)C(C)(C)C)c3)sc2cc1OC` (centres unmarked) it was 7.00 to 7.30. With `CCS(=O)(=O)c1ccc(C(Oc2ccc(C#N)cc2)C(=O)Nc2nc3ccc(OC)c(OC)c3s2)cc1` (centres unmarked) the figure was 7.00 to 7.30; with `CCS(=O)(=O)c1ccc(C(OC2CCCCC2)C(=O)Nc2nc3cc(OC)c(OC)cc3s2)cc1` (centres unmarked), less than 6.30; with `CCS(=O)(=O)c1cccc(C(Oc2ccc(OC)cc2)C(=O)Nc2nc3cc(OC)c(OC)cc3s2)c1` (centres unmarked), less than 6.30. On to `CCS(=O)(=O)c1ccc(C(Oc2ccc(C(=O)N(C)C)cc2)C(=O)Nc2nc3cc(OC)c(OC)cc3s2)cc1` (centres unmarked), for which the pEC50 was more than 7.30. Consider `CCS(=O)(=O)c1ccc(C(Oc2ccccc2OC)C(=O)Nc2nc3cc(OC)c(OC)cc3s2)cc1` (centres unmarked), for which the pEC50 is less than 6.30. As for `COc1cc2nc(NC(=O)Cc3ccc(S(=O)(=O)C4CCCC4)cc3)sc2cc1OC`, the pEC50 was less than 6.30. With `CCS(=O)(=O)c1ccc(C(Oc2ccc(C#N)cc2)C(=O)Nc2nc3ccc(N4CCOCC4)cc3s2)cc1` (centres unmarked) the figure was less than 6.30; with `CCS(=O)(=O)c1ccc(C(Oc2ccc(C#N)cc2)C(=O)Nc2nc3c4c(ccc3s2)OCO4)cc1` (centres unmarked), less than 6.30; with `COC(=O)c1ccc(C(Oc2ccc(C#N)cc2)C(=O)Nc2nc3cc(OC)c(OC)cc3s2)cc1` (centres unmarked), 6.70 to 7.00. With `C#Cc1ccc(OC(C(=O)Nc2nc3cc(OC)c(OC)cc3s2)c2ccc(S(=O)(=O)CC)cc2)cc1` (centres unmarked), the negative logarithm of the EC50 (pEC50) is 6.70 to 7.00. On to `CCS(=O)(=O)c1ccc(C(Nc2ccc(C)cc2)C(=O)Nc2nc3cc(OC)c(OC)cc3s2)cc1` (centres unmarked), for which the pEC50 was less than 6.30. `CCS(=O)(=O)c1ccc(C(Oc2cccc3ccccc23)C(=O)Nc2nc3cc(OC)c(OC)cc3s2)cc1` (centres unmarked): the pEC50 is less than 6.30. Consider `CCS(=O)(=O)c1ccc(CC(=O)Nc2nc3cc4c(cc3s2)OCO4)cc1`, for which the pEC50 was less than 6.30. In the case of `COc1cc2nc(NC(=O)C(Oc3ccc(C#N)cc3)c3ccc(S(=O)(=O)c4ccc(Cl)cc4)cc3)sc2cc1OC` (centres unmarked) it was 6.30 to 6.70; in that of `CCS(=O)(=O)c1ccc(C(Oc2ccc(C#N)cc2)C(=O)Nc2nc3c4c(ccc3s2)OCCO4)cc1` (centres unmarked), less than 6.30; in that of `COc1cc2nc(NC(=O)C(Oc3ccc(C(=O)NCCN4CCCC4)cc3)c3ccc(C#N)cc3)sc2cc1OC` (centres unmarked), 6.30 to 6.70. For the compound `CCS(=O)(=O)c1ccc(C(Oc2ccc(OC)cc2)C(=O)Nc2nc3ccc(N4CCN(C)CC4)cc3s2)cc1` (centres unmarked), the pEC50 was less than 6.30. Take `COc1ccc(OC(C(=O)Nc2nc3cc(OC)c(OC)cc3s2)c2ccc(C#N)cc2)cc1` (centres unmarked): the pEC50 was more than 7.30. Take `COc1cc2nc(NC(=O)C(Oc3ccc(C#N)cc3)c3ccc(C(=O)N4CCN(C)CC4)cc3)sc2cc1OC` (centres unmarked): the pEC50 was 6.30 to 6.70. Turning to `COCCNC(=O)c1ccc(C(Oc2ccc(C#N)cc2)C(=O)Nc2nc3cc(OC)c(OC)cc3s2)cc1` (centres unmarked), the pEC50 is 7.00 to 7.30.

With `COc1cc2nc(NC(=O)Cc3ccc(C(=O)O)cc3)sc2cc1OC`, the pEC50 was less than 6.30.

On to `CCS(=O)(=O)c1ccc(C(Oc2ccc(C#N)cc2)C(=O)Nc2nc3cc4c(cc3s2)OCO4)cc1` (centres unmarked), for which the pEC50 was less than 6.30. On to `COc1cc2nc(NC(=O)Cc3ccccc3C(=O)N(C)C)sc2cc1OC`, for which the pEC50 is less than 6.30.

`COc1cc2nc(NC(=O)C(Oc3ccc(C(=O)NCCN4CCOCC4)cc3)c3ccc(C#N)cc3)sc2cc1OC` (centres unmarked): the pEC50 is 6.30 to 6.70. As for `COc1cc2nc(NC(=O)Cc3ccccc3C(=O)O)sc2cc1OC`, the pEC50 is less than 6.30. Consider `CCS(=O)(=O)c1ccc(CC(=O)Nc2nc3cc(N(C)C)ccc3s2)cc1`, for which the pEC50 is less than 6.30. With `COc1cc2nc(NC(=O)C(Oc3ccc(C#N)cc3)c3ccc(C)cc3)sc2cc1OC` (centres unmarked) the figure was 7.00 to 7.30; with `CCS(=O)(=O)c1ccc(C(Oc2ccc(C(=O)OC)cc2)C(=O)Nc2nc3cc(OC)c(OC)cc3s2)cc1` (centres unmarked), more than 7.30; with `CCS(=O)(=O)c1ccc(C(OCC2CCOCC2)C(=O)Nc2nc3cc(OC)c(OC)cc3s2)cc1` (centres unmarked), less than 6.30.

Consider `CCS(=O)(=O)c1ccc(C(CCOC)C(=O)Nc2nc3cc(OC)c(OC)cc3s2)cc1` (centres unmarked), for which the pEC50 was less than 6.30.

As for `CCCOC(C(=O)Nc1nc2cc(OC)c(OC)cc2s1)c1ccc(S(=O)(=O)CC)cc1` (centres unmarked), the pEC50 was less than 6.30. On to `COc1ccc(OC(C(=O)Nc2nc3cc(OC)c(OC)cc3s2)c2ccccc2S(=O)(=O)c2ccc(F)cc2)cc1` (centres unmarked), for which the pEC50 was less than 6.30. For `CCS(=O)(=O)c1ccc(C(Oc2ccc(C)cc2)C(=O)Nc2nc3cc(OC)c(OC)cc3s2)cc1` (centres unmarked), the pEC50 was 6.30 to 6.70. Regarding `CCS(=O)(=O)c1ccc(C(Oc2ccc(C#N)cc2)C(=O)Nc2nc3cc(OCCN4CCOCC4)c(OC)cc3s2)cc1` (centres unmarked), the pEC50 is less than 6.30. With `CCS(=O)(=O)c1ccc(C(OC)C(=O)Nc2nc3cc(OC)c(OC)cc3s2)cc1` (centres unmarked), the pEC50 is less than 6.30. `COc1ccc(S(=O)(=O)c2ccccc2C(Oc2ccc(C#N)cc2)C(=O)Nc2nc3cc(OC)c(OC)cc3s2)cc1` (centres unmarked): the pEC50 is 6.70 to 7.00. In the case of `CCS(=O)(=O)c1cccc(C(Oc2ccc(C#N)cc2)C(=O)Nc2nc3ccc(OCCOC)cc3s2)c1` (centres unmarked), the pEC50 was less than 6.30. For `CCS(=O)(=O)c1ccc(C(Oc2ccc(C#N)cc2)C(=O)Nc2nc3cc(Cl)c(OC)cc3s2)cc1` (centres unmarked), the pEC50 was 6.30 to 6.70.

(Values after patent US12071414B2, “Apelin receptor agonists and methods of use thereof” (Sanford Burnham Prebys Medical Discovery Institute, priority 2015, dated 2024).)
